Data from ChEMBL document CHEMBL5137024, “Discovery of novel coumarin-indole derivatives as tubulin polymerization inhibitors with potent anti-gastric cancer activities” (Eur J Med Chem, 2022).

Legend:
[1] = system: KYSE-450; experiment: Antiproliferative activity against human KYSE-450 cells assessed as reduction in cell viability incubated for 48 hrs by MTT assay; assay type: functional, cell-based; settings: KYSE-450, 48 h
[2] = system: MGC-803; experiment: Antiproliferative activity against human MGC-803 cells assessed as reduction in cell viability incubated for 48 hrs by MTT assay; assay type: functional, cell-based; settings: Homo sapiens, MGC-803, 48 h
[3] = system: HCT-116; experiment: cells; settings: Homo sapiens, HCT-116, 48 h

CN(c1ccc2[nH]ccc2c1)c1cc(=O)oc2ccccc12
IC50 [1]: 69 nM | IC50 [2]: 14 nM | IC50 [3]: 50 nM

CCN(c1ccc2c(ccn2C)c1)c1cc(=O)oc2ccccc12
IC50 [1]: 128 nM | IC50 [2]: 87 nM | IC50 [3]: 102 nM

COc1ccc2c(ccn2-c2cc(=O)oc3ccccc23)c1
IC50 [1]: 16100 nM | IC50 [2]: 8140 nM | IC50 [3]: 17400 nM

O=c1cc(-n2ccc3cc([N+](=O)[O-])ccc32)c2ccccc2o1
IC50 [1]: > 20000 nM | IC50 [2]: > 20000 nM | IC50 [3]: > 20000 nM

Cc1ccc2[nH]cc(C(=O)c3cc(=O)oc4ccccc34)c2c1
IC50 [1]: > 20000 nM | IC50 [2]: > 20000 nM | IC50 [3]: > 20000 nM

COc1ccc2[nH]cc(C(=O)c3cc(=O)oc4ccccc34)c2c1
IC50 [1]: > 20000 nM | IC50 [2]: > 20000 nM | IC50 [3]: > 20000 nM

CC(C)(C)OC(=O)n1c(-c2cc(=O)oc3ccccc23)cc2ccccc21
IC50 [1]: 2180 nM | IC50 [2]: 1180 nM | IC50 [3]: 3380 nM

COc1cc2c(c(OC)c1OC)-c1ccc(OC)c(=O)cc1[C@@H](NC(C)=O)CC2 [COLCHICINE]
IC50 [1]: 122 nM | IC50 [3]: 108 nM

O=c1cc(-c2cc3ccccc3[nH]2)c2ccccc2o1
IC50 [1]: 710 nM | IC50 [2]: 650 nM | IC50 [3]: 480 nM

O=Cc1ccc2c(ccn2-c2cc(=O)oc3ccccc23)c1
IC50 [1]: 10700 nM | IC50 [2]: 18100 nM | IC50 [3]: 11400 nM

Cn1ccc2ccc(Nc3cc(=O)oc4ccccc34)cc21
IC50 [1]: 5460 nM | IC50 [2]: 1580 nM | IC50 [3]: 2160 nM

CC(C)(C)OC(=O)n1cc(-c2cc(=O)oc3ccccc23)c2ccccc21
IC50 [1]: 210 nM | IC50 [2]: 180 nM | IC50 [3]: 180 nM

Cn1ccc2cc(Nc3cc(=O)oc4ccccc34)ccc21
IC50 [1]: 310 nM | IC50 [2]: 110 nM | IC50 [3]: 270 nM

O=C(c1c[nH]c2ccccc12)c1cc(=O)oc2ccccc12
IC50 [1]: > 20000 nM | IC50 [2]: > 20000 nM | IC50 [3]: > 20000 nM

O=c1cc(-n2ccc3cc(O)ccc32)c2ccccc2o1
IC50 [1]: 17900 nM | IC50 [2]: 12900 nM | IC50 [3]: 11900 nM

O=c1cc(-c2ccc3[nH]ccc3c2)c2ccccc2o1
IC50 [1]: 2100 nM | IC50 [2]: 1560 nM | IC50 [3]: 240 nM

CCn1ccc2cc(Nc3cc(=O)oc4ccccc34)ccc21
IC50 [1]: > 20000 nM | IC50 [2]: 6040 nM | IC50 [3]: 3050 nM

CCn1ccc2cc(N(C)c3cc(=O)oc4ccccc34)ccc21
IC50 [1]: 58 nM | IC50 [2]: 13 nM | IC50 [3]: 27 nM

O=c1cc(Nc2ccc3cc[nH]c3c2)c2ccccc2o1
IC50 [1]: > 20000 nM | IC50 [2]: 20 nM | IC50 [3]: 7490 nM

O=c1cc(Nc2ccc3[nH]ccc3c2)c2ccccc2o1
IC50 [1]: 589 nM | IC50 [2]: 260 nM | IC50 [3]: 2660 nM

CN(c1ccc2ccn(C)c2c1)c1cc(=O)oc2ccccc12
IC50 [1]: 472 nM | IC50 [2]: 168 nM | IC50 [3]: 514 nM

CCn1ccc2cc(-c3cc(=O)oc4ccccc34)ccc21
IC50 [1]: 840 nM | IC50 [2]: 1210 nM | IC50 [3]: 980 nM

O=c1cc(Nc2ccc3c(ccn3Cc3ccccc3)c2)c2ccccc2o1
IC50 [1]: > 20000 nM | IC50 [2]: 210 nM | IC50 [3]: 6250 nM

O=c1cc(-n2ccc3ccccc32)c2ccccc2o1
IC50 [1]: > 20000 nM | IC50 [2]: > 20000 nM | IC50 [3]: > 20000 nM

COc1ccc2c(c1)c(C=O)cn2-c1cc(=O)oc2ccccc12
IC50 [1]: > 20000 nM | IC50 [2]: > 20000 nM | IC50 [3]: > 20000 nM
